Measured values from US10363257B2 (ZENITH EPIGENETICS LTD., priority 2013, dated 2019).
pIC50: −log10 of the molar value.

Key:
[1] = target: T1, Brd4 bromodomain 1 (BRD4(1)) (Homo sapiens, UniProt O60885); assay: Inhibition of tetra-acetylated histone H4 binding to Brd4 bromodomain 1 (TR-FRET); conditions: tetra-acetylated histone H4 peptide, first bromodomain of Brd4
T1 construct: made in house; host or cells: E. coli BL21(DE3)
Method in brief: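 Serially diluted compound (0.2% DMSO) incubated 2 h at room temperature with 200 nM N-His BRD4 bromodomain 1 and 25-50 nM biotinylated tetra-acetyl H4 peptide, detected via Eu-streptavidin/XL665 anti-His. Loss of 665 nm relative to 620 nm signal gave IC50 from dose-response.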

[2] = system: c-myc; assay: Inhibition of c-myc expression (mRNA, real-time PCR) in MV4-11 cells; type: cell-based; conditions: Human AML MV4-11 cells, 3 h, cMYC mRNA
Method in brief: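 One-step TaqMan qPCR of cMYC, normalized to an internal control with Cyclophilin probes run, gave fold expression versus DMSO (0.1%) control. Samples: triplicate MV4-11 wells exposed 3 h at 37° C to rising compound concentrations in IMDM with 10% FBS.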

[3] = system: human AML MV-4-11 cells; assay: Inhibition of cell proliferation in MV4-11 cells (CellTiter Aqueous One); type: cell-based; conditions: MV4-11, 72 h
Method in brief: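 IC50 values come from blank-corrected proliferation relative to DMSO controls, read as 490 nm absorbance 3–4 h after CellTiter Aqueous One addition. Before that, cells seeded at 5×10^4/well were exposed for 72 h (37° C, 5% CO2) to triplicate two-fold compound dilutions spanning 30–0.2 μM.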

[4] = system: hIL-6 mRNA; assay: Inhibition of hIL-6 mRNA transcription in LPS-stimulated U937 cells; type: cell-based; conditions: Homo sapiens, U-937; PMA-differentiated U937 cells, 1 h pretreatment, 1 ug/mL LPS stimulation, 3 h; read-out: IL-6 activity (Inhibition of hIL-6 mRNA Transcription)
Method in brief: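 U937 cells differentiated 3 days with 60 ng/mL PMA, pretreated 1 h with compound (0.1% DMSO), then stimulated with 1 ug/mL E. coli LPS for 3 h at 37 °C. hIL-6 mRNA measured by one-step TaqMan RT-qPCR, normalized to cyclophilin. Fold expression relative to control; triplicate wells.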

[5] = system: hIL-17 mRNA; assay: Inhibition of hIL-17 mRNA transcription in OKT3-stimulated peripheral blood mononuclear cells; type: cell-based; conditions: PBMC, human peripheral blood mononuclear cells, OKT3 antibody, 6 h, read-out: IL-17 activity
Description: In this example, hIL-17 mRNA in human peripheral blood mononuclear cells was quantitated to measure the transcriptional inhibition of hIL-17 when treated with a compound of the invention.
Human peripheral blood mononuclear cells were plated (2.0×10^5 cells per well) in a 96-well plate in 45 μL OpTimizer T Cell expansion media containing 20 ng/ml IL-2 and penicillin/streptomycin. The cells were treated with the test compound (45 μL at 2× concentration), and then the cells were incubated at 37° C. for 1 h before addition of 10× stock OKT3 antibody at 10 μg/ml in media. Cells were incubated at 37° C. for 6 h before the cells were harvested. At time of harvest, cells were centrifuged (800 rpm, 5 min). Spent media was removed and cell lysis solution (70 μL) was added to the cells in each well and incubated for 5-10 min at room temperature, to allow for complete cell lysis and detachment. mRNA was then prepared using the “mRNA Catcher PLUS plate” (Invitrogen), according to the protocol supplied. After the last wash, as much wash buffer as possible was aspirated without allowing the wells to dry. Elution buffer (E3, 70 μL) was then added to each well. mRNA was then eluted by incubating the mRNA Catcher PLUS plate with Elution Buffer for 5 min at 68° C. and then immediately placing the plate on ice.
The eluted mRNA isolated was then used in a one-step quantitative RT-PCR reaction, using components of the Ultra Sense Kit together with Applied Biosystems primer-probe mixes. Real-time PCR data was analyzed, normalizing the Ct values for hIL-17 to an internal control, prior to determining the fold induction of each unknown sample, relative to the control.

SMILES	pIC50 [1]	pIC50 [2]	pIC50 [3]	pIC50 [4]	pIC50 [5]
Cc1noc(C)c1-c1cnc2cnn(Cc3ccc(F)cc3)c2c1 [Example Compound 51, 4-(1-(4-fluorobenzyl)-1H-pyrazolo[4,3-b]pyridin-6-yl)-3,5-dimethylisoxazole]	≥ 6.52	5.52 to 6.52	5.52 to 6.52	5.52 to 6.52	5.52 to 6.52
Cc1noc(C)c1-c1cnc2[nH]c(=O)n(Cc3ccc(Cl)cc3)c2c1 [compound 105, 1-(4-chlorobenzyl)-6-(3,5-dimethylisoxazol-4-yl)-1H-imidazo[4,5-b]pyridin-2(3H)-one]	≥ 6.52	5.52 to 6.52	5.52 to 6.52	5.52 to 6.52	5.52 to 6.52
Cc1noc(C)c1-c1cc(N)c2[nH]c(=O)n(Cc3ccccc3)c2c1 [Example Compound 16, 4-amino-1-benzyl-6-(3,5-dimethylisoxazol-4-yl)-1H-benzo[d]imidazol-2(3H)-one]	≥ 6.52	≥ 6.52	≥ 6.52	≥ 6.52	5.52 to 6.52
Cc1noc(C)c1-c1cnc2nc(C)n(Cc3ccccc3)c2c1 [Example Compound 13, 4-(1-benzyl-2-methyl-1H-imidazo[4,5-b]pyridin-6-yl)-3,5-dimethylisoxazole]	≥ 6.52	5.52 to 6.52	5.52 to 6.52	≥ 6.52	5.52 to 6.52
Cc1noc(C)c1-c1cnc2ncn(Cc3ccccc3)c2c1 [Example Compound 5, 4-(1-Benzyl-1H-imidazo[4,5-b]pyridin-6-yl)-3,5-dimethylisoxazole]	≥ 6.52	5.52 to 6.52	5.52 to 6.52	5.52 to 6.52	5.52 to 6.52
Cc1noc(C)c1-c1cnc2[nH]c(=O)n(C(C)c3ccccc3)c2c1 (stereo not drawn) [compound 112, 6-(3,5-dimethylisoxazol-4-yl)-1-(1-phenylethyl)-1H-imidazo[4,5-b]pyridin-2(3H)-one]	≥ 6.52	≥ 6.52	5.52 to 6.52	5.52 to 6.52	≥ 6.52
